Experiments:
[1] = tested on: tuberin phosphorylation at S-1798; assay: Phosphorylation of immunoprecipitated tuberin at S-1798 in serum-starved Nf1-deficient MEFs; assay type: cell-based, mouse
[2] = tested on: S6K1 phosphorylation at T-389 (readout of mTOR activation); assay: S6K1 (T-389) phosphorylation immunoblot in serum-starved Nf1-deficient MEFs; assay type: cell-based, mouse; conditions: serum-deprived Nf1-null MEFs; pre-treatment 30 min; 20 nM rapamycin, 200 nM wortmannin, U0126
[3] = tested on: tuberin phosphorylation at T-1462 and S-939; assay: Tuberin phosphorylation at T-1462 and S-939, immunoblot in serum-starved Nf1-deficient cells; assay type: cell-based, mouse; conditions: 200 nM wortmannin or U0126
[4] = tested on: S6K1 phosphorylation in NF1-/- Schwann cells; assay: S6K1 phosphorylation immunoblot in neurofibroma-derived NF1-/- Schwann cells; assay type: cell-based; conditions: NF1-/- Schwann cells from human cutaneous and plexiform neurofibromas
Method: Litter-mate matched MEFs or NIH3T3 cells were plated in serum-free media at a density of 1.0×10^6 cells/10-cm plate. After 18 hours, 200 nM insulin or 6 μM LPA was added. Where indicated, cells were pre-treated with DMSO, 20 nM rapamycin (Calbiochem), 200 nM Wortmannin (Sigma-Aldrich), or indicated concentrations of U0126 (Calbiochem) for 30-min. For amino acid withdrawal studies, cells were washed and media was replaced with D-PBS for the indicated times. Following stimulation, cells were lysed in 1% SDS boiling lysis buffer. Neurofibroma-derived patient matched NF1^+/− and NF1^−/− Schwann cells were isolated and cultured as previously described (Rosenbaum, et al., J. Neurosci. Res. 61:524-532 (2000); Serra, et al., Hum. Mol. Genet. 9:3055-3064 (2000)). Schwann cells were seeded at a concentration of 2.5×10^5 cells/6-cm plate in DMEM containing 0.1% serum without forskolin, insulin or heregulin and lysed as described above. […] Clarified lysates were normalized for protein levels and analyzed by Western blotting with the following antibodies: Phospho-p70S6K(T-389), Phospho-Tuberin (S-939), Phospho-Tuberin (T-1462), Phospho-Akt(S-473), Phospho-p44/42 Erk (T-202/Y-204) (Cell Signaling Technologies), Tuberin (C-20) (Santa Cruz Biotechnology), Protein Kinase Bα/AKT1, Actin, β-Tubulin (Sigma-Aldrich) and avian p90RSK1. […]

[5] = tested on: MPNST cell lines from NF1 patients; assay: MPNST proliferation studies (live cell count, trypan blue exclusion); assay type: cell-based; conditions: Homo sapiens, 168 h; two MPNST cell lines from two NF1 patients; 7 days; rapamycin 0.01-100 nM

Compound | tuberin phosphorylation at S-1798 (basophilic RXRXXpS/T site) [1] | aberrant activation (phosphorylation) of S6K1 [2] | tuberin phosphorylation at T-1462 and S-939 [3] | S6K1 phosphorylation [4] | IC50 [5] [nM]
N#CC(=C(/N)Sc1ccccc1N)/C(C#N)=C(\N)Sc1ccccc1N [U0126] | suppressed | suppressed S6K1 phosphorylation in these cells to a similar extent | no effect | blocked | –
CO[C@H]1C[C@@H]2CC[C@@H](C)[C@@](O)(O2)C(=O)C(=O)N2CCCC[C@H]2C(=O)O[C@H]([C@H](C)C[C@@H]2CC[C@@H](O)[C@H](OC)C2)CC(=O)[C@H](C)/C=C(\C)[C@@H](O)[C@@H](OC)C(=O)[C@H](C)C[C@H](C)/C=C/C=C/C=C/1C [rapamycin] | – | – | – | – | 1 to 10

Source: patent publication US20060160837A1, “Rapamycin compounds in the treatment of neurofibromatosis type 1” (The Brigham and Women's Hospital, Inc., priority 2004, published 2006)
